Reference: patent US20140357487A1, “PLANTS HAVING INCREASED TOLERANCE TO HERBICIDES” (BASF SE, priority 2011, published 2014)

Tests used:
[1] = tested on: transgenic soybean plants, Arabidopsis M335Y, event SDS-9866; assay: Greenhouse testing of transgenic soybean plants, Arabidopsis M335Y; format: in vivo, Glycine max; conditions: soybean SDS-9866, 5 days after herbicide treatment, average of 8 T1
Description: Various methods for the production of stably transformed plants are well known in the art. Coumarone-derivative herbicide tolerant soybean (Glycine max) or corn (Zea mays) plants can be produced by a method described by Olhoft et al. (US patent 2009/0049567). Briefly, HPPD or HST encoding polynucleotides are cloned into a binary vector using standard cloning techniques as described by Sambrook et al. (Molecular cloning (2001) Cold Spring Harbor Laboratory Press). The final vector construct contains an HPPD or HST encoding sequence flanked by a promoter sequence (e.g. the ubiquitin promoter (PcUbi) sequence) and a terminator sequence (e.g. the nopaline synthase terminator (NOS) sequence) and a resistance marker gene cassette (e.g. AHAS) (FIG. 2). Optionally, the HPPD or HST gene can provide the means of selection. Agrobacterium-mediated transformation is used to introduce the DNA into soybean's axillary meristem cells at the primary node of seedling explants. After inoculation and co-cultivation with Agrobacteria, the explants are transferred to shoot induction medium without selection for one week. The explants are subsequently transferred to shoot induction medium with 1-3 μM imazapyr (Arsenal) for 3 weeks to select for transformed cells. Explants with healthy callus/shoot pads at the primary node are then transferred to shoot elongation medium containing 1-3 μM imazapyr until a shoot elongates or the explant dies. After regeneration, transformants are transplanted to soil in small pots, placed in growth chambers (16 hr day/8 hr night; 25° C. day/23° C. night; 65% relative humidity; 130-150 mE m−2 s−1) and subsequently tested for the presence of the T-DNA via Taqman analysis. After a few weeks, healthy, transgenic positive, single copy events are transplanted to larger pots and allowed to grow in the growth chamber. Transformation of corn plants is done by a method described by McElver and Singh (WO 2008/124495). Plant transformation vector constructs containing HPPD or HST sequences are introduced into maize immature embryos via Agrobacterium-mediated transformation. Transformed cells are selected in selection media supplemented with 0.5-1.5 μM imazethapyr for 3-4 weeks. Transgenic plantlets are regenerated on plant regeneration media and rooted afterwards. Transgenic plantlets are subjected to TaqMan analysis for the presence of the transgene before being transplanted to potting mixture and grown to maturity in greenhouse. Arabidopsis thaliana is transformed with HPPD or HST sequences by floral dip method as described by McElver and Singh (WO 2008/124495). Transgenic Arabidopsis plants are subjected to Tag Man analysis for analysis of the number of integration loci. Transformation of Oryza sativa (rice) are done by protoplast transformation as described by Peng et al. (U.S. Pat. No. 6,653,529)
Transgenic plants expressing heterologous HPPD or HST enzymes are tested for tolerance against coumarone-derivative herbicides in greenhouse experiments.
For post emergence treatment, the test plants are first grown to a height of 3 to 15 cm, depending on the plant habit, and only then treated with the herbicides. For this purpose, the test plants are either sown directly and grown in the same containers, or they are first grown separately and transplanted into the test containers a few days prior to treatment.
Depending on the species, the plants are kept at 10-25° C. or 20-35° C. The test period extends over 3 weeks. During this time, the plants are tended and their response to the individual treatments is evaluated. […] Tolerance to coumarone-derivative herbicides can also be assessed in Arabidopsis. In this case transgenic Arabidopsis thaliana plants are assayed for improved tolerance to coumarone-derivative herbicides in 48-well plates. Seeds are surface sterilized by stirring for 5 min in ethanol+water (70+30 by volume), rinsing one time with ethanol+water (70+30 by volume) and two times with a sterile, deionized water. […]

Alopecurus HPPD = assay: HPPD activity assay, Alopecurus HPPD; format: biochemical; conditions: normalized on Arabidopsis wild-type HPPD
Method: (§1) HPPD produces homogentisic acid and CO2 from 4-hydroxyphenylpyruvate (4-HPP) and O2. The activity assay for HPPD is based on the analysis of homogentisic acid by reversed phase HPLC.
(§2) The assay mixture can contain 150 mM potassium phosphate buffer pH 7.0, 50 mM L-ascorbic acid, 1 μM FeSO4 and 7 μg of purified enzyme in a total volume of 1 ml.
(§3) Inhibitors are dissolved in DMSO (dimethylsulfoxide) to a concentration of 20 mM or 0.5 mM, respectively. From this stock solution serial five-fold dilutions are prepared in DMSO, which are used in the assay. The respective inhibitor solution accounts for 1% of the assay volume. Thus, final inhibitor concentrations range from 200 μM to 2.5 nM or from 5 μM to 63 pM, respectively. After a preincubation of 30 min the reaction is started by adding 4-HPP to a final concentration of 0.1 mM. The reaction is allowed to proceed for 120 min at room temperature. The reaction is stopped by addition of 100 μl of 4.5 M phosphoric acid.
(§4) Activities are normalized by setting the uninhibited enzyme activity to 100%. IC50 values are calculated using non-linear regression.
(§5) The assay mixture can contain 150 mM potassium phosphate buffer pH 7.0, 50 mM L-ascorbic acid, 100 μM Catalase (Sigma-Aldrich), 1 μM FeSO4 and 0.2 units of purified HPPD enzyme in a total volume of 505 μl. […]
(§6) Inhibitors are dissolved in DMSO (dimethylsulfoxide) to a concentration of 0.5 mM. […] IC50 values are calculated using non-linear regression.
(§7) Using methods which are described in the above examples or well known in the art, purified, recombinant wildtype HPPD enzymes are characterized with respect to their kinetic properties and sensitivity towards HPPD inhibiting herbicides. Apparent michaelis constants (Km) and maximal reaction velocities (Vmax) are calculated by non-linear regression with the software GraphPad Prism 5 (GraphPad Software, La Jolla, USA) using a substrate inhibition model. […] Weighted means (by standard error) of Km and […] values are calculated from at least three independent experiments. […]

Blepharisma HPPD = assay: HPPD activity assay, Blepharisma HPPD; format: biochemical; conditions: normalized on Arabidopsis wild-type HPPD
Method: as §1, §2
(§8) Inhibitors are dissolved in DMSO (dimethylsulfoxide) to a concentration of 20 mM or 0.5 mM, respectively. From this stock solution serial five-fold dilutions are prepared in DMSO, which are used in the assay. The respective inhibitor solution accounts for 1% of the assay volume. […]
(§9) Activities are normalized by setting the uninhibited enzyme activity to 100%. IC50 values are calculated using non-linear regression. […]
as §6
(§10) Using methods which are described in the above examples or well known in the art, purified, recombinant wildtype HPPD enzymes are characterized with respect to their kinetic properties and sensitivity towards HPPD inhibiting herbicides. Apparent michaelis constants (Km) and maximal reaction velocities (Vmax) are calculated by non-linear regression with the software GraphPad Prism 5 (GraphPad Software, La Jolla, USA) using a substrate inhibition model. […]

Chlamydomonas HPPD1 = assay: HPPD activity assay, Chlamydomonas HPPD1; format: biochemical, Chlamydomonas reinhardtii; conditions: normalized on Arabidopsis wild-type HPPD
Method: as §1, §2, §3, §4, §5, §6, §7

Kordia HPPD = assay: HPPD activity assay, Kordia HPPD; format: biochemical; conditions: normalized on Arabidopsis wild-type HPPD
Method: as §1, §2, §8, §9, §6, §10

Structure (SMILES)	Injury evaluation, scale of 1-100, bleaching phenotype ([1]; 6.25 g/ha)	Injury evaluation, scale of 1-100, bleaching phenotype ([1]; 25 g/ha)	Injury evaluation, scale of 1-100, bleaching phenotype ([1]; 100 g/ha)	Normalized tolerance index TI (Alopecurus HPPD)	Normalized tolerance index TI (Blepharisma HPPD)	Normalized tolerance index TI (Chlamydomonas HPPD1)	Normalized tolerance index TI (Kordia HPPD)	Injury evaluation, scale of 1-100, bleaching phenotype ([1]; 2.5 g/ha)	Injury evaluation, scale of 1-100, bleaching phenotype ([1]; 10 g/ha)	Injury evaluation, scale of 1-100, bleaching phenotype ([1]; 40 g/ha)
Cc1c(C(=O)c2cnn(C)c2O)ccc(S(C)(=O)=O)c1C1=NOCC1 [Topramezone, reference compound]	4	8	23							
CC1=NOC(c2c(Cl)ccc(C3=C(O)c4ncccc4C(C)(C)S3(=O)=O)c2Cl)C1 (centres unmarked) [Inhibitor 1, 7-[2,4-dichloro-3-(3-methyl-4,5-dihydroisoxazol-5-yl)phenyl]-5,5-dimethyl-6,6-dioxo-thiopyrano[4,3-b]pyridin-8-ol]				2.5	12.4	2.1	22			
CC1(C)c2cccnc2C(O)=C(c2ccc(Cl)nc2Cl)S1(=O)=O [Inhibitor 2, 7-(2,6-dichloro-3-pyridyl)-5,5-dimethyl-6,6-dioxo-thiopyrano[4,3-b]pyridin-8-ol]				1.4				4	5	10
COCCOCc1c(Cl)ccc(C2=C(O)c3ncccc3C(C)(C)S2(=O)=O)c1Cl [Inhibitor 3, 7-[2,4-dichloro-3-(2-methoxyethoxymethyl)phenyl]-5,5-dimethyl-6,6-dioxo-thiopyrano[4,3-b]pyridin-8-ol]					0.5	0.1	0.7			
